Data as given in patent US4482560A, “Carbostyril derivatives, and antihistaminic agents containing the same” (priority 1979, dated 1984).
Structures can show the parent of a compound that is named as a salt. Where two headings read alike, the source gives them in different places.

Legend:
Acute toxicity test = conditions: rat, in vivo; oral, male rats
From the text: Each of the compounds of the present invention was orally administered to male rats to determine the acute toxicity.

ileum of a guinea pig = ileum of a guinea pig (Cavia porcellus, UniProt P31389); test: cell-based
Method: Pharmacological tests of the present compounds were conducted according to said method as follows:
A male guinea pig having 300 to 500 g body weight is killed by blood letting. An ileum having length of 15 cm being enucleated from the ileocecal region is dipped into Tyrode's solution (which is prepared from 8.0 g of NaCl, 0.2 g of KCl, 0.2 g of CaCl2, 1.0 g of glucose, 1.0 g of NaHCO3, 0.065 g of NaHPO4.2H2 O and 0.2135 g of MgCl2.6H2 O to make 1000 ml in total volume by adding water). Then the tissue of ileum is cut to a length of 2.5 to 3.0 cm and suspended in an organ bath filled with 30 ml of Tyrode's solution. The organ bath is kept a temperature of 36° C. while blowing a mixed gas consisting of 5% of CO2 and 95% of O2 into the bath. 10 Minutes after the blowing, 10^-6 M of histamine is added to the bath to examine the sensitivity of the tissue and a reaction curve (control) with respect to the dosage of histamine is obtained. After the dosage of histamine-reaction curve (control) become constant 10^-6 g/ml of a compound to be tested is added to the bath and further histamine is added 5 minutes later to obtain dosage-reaction curve. Retraction of the ileum is recorded on a pen-recorder through an isotonic transducer (TD-112S manufactured by Nihon Koden).

Male mice of ddy-strain = test: Halothane anesthesia increasing activity; format: in vivo, mouse; conditions: for Time (minutes) between introduction of anesthesia and waking (righting reflex): oral, 32 mg/kg, 1 hour before 4% Halothane for 3 minutes, male ddy mice, saline control 4.2; for Halothane anesthesia increasing activity / central nervous controlling effect in words: compared with control (physiological saline solution)
Method: Male mice of ddy-strain having about 20 g body weight were used. One test group consists of 10 mice. An aqueous Gummi Arabicum suspension of test compound (80 mg of a compound to be tested and 1 g of Gummi Arabicum/100 ml of physiological NaCl solution) was administered orally to each mouse at the dosage of 32 mg of test compound/kg body. One hour after the administration, each mouse was placed in gas respiration chamber (13×13×24 cm) and oxygen gas containing 4% of Halothane [2-bromo-2-chloro-1,1,1-trifluoroethane] was blown into the chamber at the velocity of 2 l/min for 3 minutes. A mouse anaesthetized was taken out from the chamber and the time between the introduction of anesthesia to waking was measured by righting reflex as the index. To mice of control group, 1% Gummi Arabicum aqueous physiological solution was orally administered at the dosage of 0.1 ml/kg body. (Reference: M. J. Turnbull and J. W. Watkins: Br. J. Pharmacol., 58, 27-35 (1976))

[1] = histamine-induced retraction of guinea pig ileum, test compound 10^-6 g/ml, 36° C., Van Rossam method, read-out: pA2 (converted)
[2] = histamine-induced retraction of guinea pig ileum, test compound 10^-6 g/ml, 36° C., Van Rossam method

ileum of a guinea pig, sequence (P31389 whole entry): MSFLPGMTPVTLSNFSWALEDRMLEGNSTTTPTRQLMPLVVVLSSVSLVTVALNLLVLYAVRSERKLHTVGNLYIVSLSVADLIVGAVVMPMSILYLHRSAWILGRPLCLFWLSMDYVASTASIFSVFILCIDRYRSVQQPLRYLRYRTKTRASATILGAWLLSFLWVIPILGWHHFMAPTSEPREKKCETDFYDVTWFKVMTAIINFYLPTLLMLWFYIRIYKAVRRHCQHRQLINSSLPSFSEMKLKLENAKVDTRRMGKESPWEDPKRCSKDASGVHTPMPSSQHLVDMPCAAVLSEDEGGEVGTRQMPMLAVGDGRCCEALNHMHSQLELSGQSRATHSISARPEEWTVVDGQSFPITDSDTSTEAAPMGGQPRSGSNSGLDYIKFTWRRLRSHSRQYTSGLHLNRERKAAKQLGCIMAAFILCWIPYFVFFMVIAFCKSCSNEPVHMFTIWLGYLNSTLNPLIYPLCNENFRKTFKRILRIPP

Molecule | LD50 (Acute toxicity test) | Kb (ileum of a guinea pig; [1]) | Time (minutes) between introduction of anesthesia and waking (righting reflex) (Male mice of ddy-strain) | pA2 (ileum of a guinea pig; [2]) | Halothane anesthesia increasing activity / central nervous controlling effect in words (Male mice of ddy-strain) | Kb (ileum of a guinea pig)
C=CCN1C(=O)CCc2c(OCC(O)CN3CCC(Cc4ccccc4)CC3)cccc21.O=C(O)C(=O)O (stereo not drawn) [Compound 6, 1-Allyl-5-[2-hydroxy-(4-benzyl-1-piperidyl)-propoxy]-3,4-dihydrocarbostyril monooxalate] | > 1000 mg/kg | 0.288 nM | 5.6 min | – | – | –
Cc1cc(=O)[nH]c2cc(OCCCN3CCC(Cc4ccccc4)CC3)ccc12 [Compound 5, 4-Methyl-7-[3-(4-benzyl-1-piperidyl)propoxy]-carbostyril] | > 1000 mg/kg | 0.257 nM | 4.6 min | – | – | –
8-(2-Propionyloxy)-5-[2-hydroxy-3-(4-phenyl-1-piperazinyl)propoxy]-3,4-dihydrocarbostyril hydrochloride [Q, reference compound] | – | – | 8.7 min | 8.65 | different Halothane anesthesia increasing activity as compared with control | –
CCN1C(=O)CCc2c(OCC(O)CN3CCC(Cc4ccccc4)CC3)cccc21.O=C(O)C(=O)O (stereo not drawn) [Compound 7, 1-Ethyl-5-[2-hydroxy-3-(4-benzyl-1-piperidyl)-propoxy]-3,4-dihydrocarbostyril monooxalate] | > 1000 mg/kg | 0.224 nM | 4.2 min | – | – | –
CN1C(=O)CCc2c(OCCCN3CCC(Cc4ccccc4)CC3)cccc21.Cl [Compound 4, 1-Methyl-5-[3-(4-benzyl-1-piperidyl)propoxy]-3,4-dihydrocarbostyril monohydrochloride] | > 1000 mg/kg | 0.01 nM | 4.2 min | – | – | –
C#CCN1C(=O)CCc2c(OCCCN3CCC(Cc4ccccc4)CC3)cccc21.Cl [Compound 3, 1-Propargyl-5-[3-(4-benzyl-1-piperidyl)-propoxy]-3,4-dihydrocarbostyril monohydrochloride] | > 1000 mg/kg | 0.186 nM | 5.1 min | – | – | –
O=C(O)C(=O)O.O=C1CCc2c(OCC(O)CN3CCC(Cc4ccccc4)CC3)cccc2N1Cc1ccccc1 (stereo not drawn) [Compound 12, 1-Benzyl-5-[2-hydroxy-(4-benzyl-1-piperidyl)-propoxy]-3,4-dihydrocarbostyril monooxalate] | > 1000 mg/kg | 0.02 nM | 4.2 min | – | – | –
Cc1cc(=O)[nH]c2ccc(OCCCN3CCN(c4ccccc4)CC3)cc12 [H, 4-Methyl-6-(4-phenyl-1-piperazinylpropoxy)-carbostyril, reference compound] | – | 0.269 nM | – | – | – | –
Cc1cc(=O)[nH]c2cc(OCCCN3CCN(Cc4ccc(Cl)cc4)CC3)ccc12 [J, reference compound] | – | – | 8.5 min | 9.13 | different Halothane anesthesia increasing activity as compared with control | –
CC(C(=O)c1cc(Cl)c2c(c1)CCC(=O)N2)N1CCN(c2ccccc2)CC1 (stereo not drawn) [Compound N, 8-Chloro-6-[α-(4-phenyl)-1-piperazinyl)-propionyl]-3,4-dihydrocarbostyril hydrochloride, reference compound] | – | – | – | – | – | 617 nM
COc1ccc(CCNC(C)C(=O)c2cc(Cl)c3c(c2)CCC(=O)N3)cc1OC (stereo not drawn) [L, 8-Chloro-6-[α-(β-3,4-dimethoxyphenethyl-amino)propionyl]-3,4-dihydrocarbostyril monohydrochloride, reference compound] | – | 4790 nM | – | – | – | –
COc1ccc(N2CCN(CC(O)COc3ccc(NC(N)=O)c4c3CCC(=O)N4)CC2)cc1.Cl (stereo not drawn) [S, 5-{2-Hydroxy-3-[4-(4-methoxyphenyl)-1-piperazinyl]propoxy}-8-ureido-3,4-dihydrocarbostyril hydrochloride, reference compound] | – | 10.7 nM | 9.1 min | – | different Halothane anesthesia increasing activity as compared with control | –
COc1ccc(N2CCN(CC(O)COc3ccc(OCc4ccccc4)c4c3CCC(=O)N4)CC2)cc1 (stereo not drawn) [R, Benzyloxy-5-{2-hydroxy-3-[4-(4-methoxy-phenyl)-1-piperazinyl]propoxy}-3,4-dihydrocarbostyril hydrochloride, reference compound] | – | – | – | 9.57 | – | –
CC(C)(C)NCC(O)c1cc(Cl)c2c(c1)CCC(=O)N2 (stereo not drawn) [K, 8-Chloro-6-(1-hydroxy-2-tert-butylamino-ethyl)-3,4-dihydrocarbostyril monohydrochloride, reference compound] | – | 47900 nM | – | – | – | –
CC(C(O)c1cc(Cl)c2c(c1)CCC(=O)N2)N1CCN(c2ccccc2)CC1 (stereo not drawn) [M, 8-Chloro-6-[1-hydroxy-2-(4-phenyl-1-piperazinyl)propyl]-3,4-dihydrocarbostyril monohydrochloride, reference compound] | – | 6460 nM | – | – | – | –
O=C1CCc2c(OCC(O)CN3CCC(Cc4ccccc4)CC3)ccc(Br)c2N1 (stereo not drawn) [Compound 8, 8-Bromo-5-[2-hydroxy-3-(4-benzyl-1-piperidyl)-propoxy]-3,4-dihydrocarbostyril] | > 1000 mg/kg | 4.07 nM | 5.5 min | – | – | –
Cc1ccccc1N1CCN(CC(O)COc2ccc(NS(C)(=O)=O)c3c2CCC(=O)N3)CC1 (stereo not drawn) [T, 8-Methanesulfonylamino-5-{2-hydroxy-3-[4-(2-methylphenyl)-1-piperazinyl]propoxy}-3,4-dihydro-carbostyril, reference compound] | – | 15.8 nM | 8.9 min | – | different Halothane anesthesia increasing activity as compared with control | –
COc1ccc(CCNC(C)C(O)c2cc(Cl)c3c(c2)CCC(=O)N3)cc1OC (stereo not drawn) [O, 8-Chloro-6-[1-hydroxy-2-(β-3,4-dimethoxy-phenethylamino)propyl]-3,4-dihydrocarbostyril hydrochloride, reference compound] | – | 1480 nM | – | – | – | –
O=C1CCc2c(cccc2OCCCN2CCC(O)(c3ccccc3)CC2)N1 [Compound 14, 5-{3-[4-(4-Hydroxy-4-phenyl)-1-piperidyl]}-3,4-dihydrocarbostyril] | > 1000 mg/kg | – | 5.1 min | 9.30 | – | –
CC(=O)Oc1ccc(OCC(O)CN2CCN(c3ccccc3Cl)CC2)c2c1NC(=O)CC2 (stereo not drawn) [P, 8-Acetyoxy-5-{2-hydroxy-3-[4-(2-chloro-phenyl)-1-piperazinyl]propoxy}-3,4-dihydrocarbostyril hydrochloride, reference compound] | – | 24 nM | 8.9 min | – | different Halothane anesthesia increasing activity as compared with control | –
O=c1ccc2cccc(OCCCN3CCN(c4ccccc4)CC3)c2[nH]1 [F, 8-(4-Phenyl-1-piperazinylpropoxy)carbostyril, reference compound] | – | – | 9.5 min | 8.58 | – | –
O=c1ccc2ccc(OCCCN3CCN(c4ccccc4)CC3)cc2[nH]1 [G, 7-(4-Phenyl-1-piperazinylpropoxy)carbostyril, reference compound] | – | – | 28.7 min | – | – | –
7-[4-β-Chlorophenyl)-1-piperazinylpropoxy]-carbostyril [reference compound] | – | – | 32.7 min | – | different Halothane anesthesia increasing activity as compared with control | –
